# Data from PubChem BioAssay (NCI).
#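 Briefly, cells in 96-well plates were exposed to five compound concentrations for 48 h, and endpoints were estimated by linear interpolation. TGI marks complete inhibition of growth.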
# Tests used:
# Assay in all cases: growth of human tumour cells (NCI), 48 h
# [1] = test system: OVCAR-4 ovarian
# [2] = test system: HCC-2998 colon
# [3] = test system: SNB-75 CNS
# [4] = test system: SK-OV-3 ovarian
# [5] = test system: HOP-92 NSCLC
# [6] = test system: K-562 leukemia
# [7] = test system: KM12 colon
# [8] = test system: 786-0 renal
# [9] = test system: HCT-15 colon
# [10] = test system: NCI/ADR-RES ovarian
# [11] = test system: SW-620 colon
# [12] = test system: MDA-MB-435
# [13] = test system: SK-MEL-2 melanoma
# [14] = test system: HOP-62 NSCLC
# [15] = test system: BT-549 breast
# [16] = test system: TK-10 renal
# [17] = test system: NCI-H522 lung
# [18] = test system: NCI-H460 lung
# [19] = test system: PC-3 prostate
# [20] = test system: MDA-MB-231 breast
# [21] = test system: MOLT-4 leukemia
# [22] = test system: SR leukemia
# [23] = test system: A498 renal
# [24] = test system: SK-MEL-28 melanoma
# [25] = test system: IGROV1 ovarian
# [26] = test system: A549 NSCLC
# [27] = test system: SN12C renal
# [28] = test system: RXF 393 renal
# [29] = test system: MDA-N
# [30] = test system: ACHN renal
# [31] = test system: SF-539 CNS
# [32] = test system: M14 melanoma
# [33] = test system: COLO 205 colon
# [34] = test system: CCRF-CEM leukemia
# [35] = test system: NCI-H226 lung
# [36] = test system: HT29 colon
# [37] = test system: UACC-257 melanoma
# [38] = test system: SK-MEL-5 melanoma
# [39] = test system: RPMI-8226 leukemia
# [40] = test system: T-47D breast
# [41] = test system: NCI-H23 lung
# [42] = test system: UO-31 renal
# [43] = test system: HL-60(TB) leukemia
# [44] = test system: SF-268 CNS
# [45] = test system: MALME-3M melanoma
# [46] = test system: OVCAR-8 ovarian
# [47] = test system: U251 CNS
# [48] = test system: OVCAR-3 ovarian
# [49] = test system: CAKI-1 renal
# [50] = test system: EKVX NSCLC
# [51] = test system: UACC-62 melanoma
# [52] = test system: HS 578T breast
# [53] = test system: DU-145 prostate
# [54] = test system: LOX IMVI melanoma
# [55] = test system: MCF7 breast
# [56] = test system: SNB-19 CNS
# [57] = test system: OVCAR-5 ovarian
# [58] = test system: HCT-116 colon
# [59] = test system: SF-295 CNS
smiles,measurement,setting,value
CN(C)CC1CCC/C(=C\c2ccc(OC(=O)/C=C/c3ccc(Cl)c(Cl)c3)cc2)C1=O (configuration not stated),TGI,[1],> 60.3 µM
same,TGI,[2],10.1 µM
same,TGI,[3],68.5 µM
same,TGI,[4],> 100 µM
same,TGI,[5],4.27 µM
same,TGI,[6],> 100 µM
same,TGI,[7],3.61 µM
same,TGI,[8],4.19 µM
same,TGI,[9],6.84 µM
same,TGI,[10],18.5 µM
same,TGI,[11],7.86 µM
same,TGI,[12],> 60.1 µM
same,TGI,[13],44.8 µM
same,TGI,[14],14.8 µM
same,TGI,[15],8.01 µM
same,TGI,[16],5.96 µM
same,TGI,[17],8.28 µM
same,TGI,[18],23.2 µM
same,TGI,[19],13.2 µM
same,TGI,[20],11.9 µM
same,TGI,[21],4.13 µM
same,TGI,[22],3.54 µM
same,TGI,[23],32.1 µM
same,TGI,[24],28.1 µM
same,TGI,[25],3.15 µM
same,TGI,[26],24.4 µM
same,TGI,[27],5.64 µM
same,TGI,[28],4.41 µM
same,TGI,[29],12.1 µM
same,TGI,[30],3.46 µM
same,TGI,[31],7.19 µM
same,TGI,[32],24.9 µM
same,TGI,[33],3.93 µM
same,TGI,[34],1.77 µM
same,TGI,[35],4.56 µM
same,TGI,[36],4.68 µM
same,TGI,[37],40.4 µM
same,TGI,[38],12.2 µM
same,TGI,[39],0.62 µM
same,TGI,[40],6.75 µM
same,TGI,[41],14.4 µM
same,TGI,[42],13.9 µM
same,TGI,[43],3.45 µM
same,TGI,[44],36.1 µM
same,TGI,[45],25.4 µM
same,TGI,[46],28.5 µM
same,TGI,[47],27.9 µM
same,TGI,[48],14.6 µM
same,TGI,[49],5.81 µM
same,TGI,[50],23.5 µM
same,TGI,[51],33.3 µM
same,TGI,[52],> 85.3 µM
same,TGI,[53],> 93.3 µM
same,TGI,[54],4.01 µM
same,TGI,[55],5.79 µM
same,TGI,[56],18.6 µM
same,TGI,[57],> 65.3 µM
same,TGI,[58],14.5 µM
same,TGI,[59],26.2 µM
O=[N+]([O-])c1ccc(O)c(/C=N/c2nc(-c3ccccc3)cs2)c1,TGI,[1],> 100 µM
same,TGI,[2],> 61.4 µM
same,TGI,[3],75.5 µM
same,TGI,[4],89.5 µM
same,TGI,[5],75.2 µM
same,TGI,[6],41.9 µM
same,TGI,[7],> 100 µM
same,TGI,[8],> 100 µM
same,TGI,[9],> 89.7 µM
same,TGI,[10],> 91.4 µM
same,TGI,[11],> 100 µM
same,TGI,[12],> 100 µM
same,TGI,[13],70.5 µM
same,TGI,[14],> 90.5 µM
same,TGI,[15],46.4 µM
same,TGI,[16],> 75.4 µM
same,TGI,[17],38.1 µM
same,TGI,[18],> 86.7 µM
same,TGI,[19],> 100 µM
same,TGI,[20],> 100 µM
same,TGI,[21],43.3 µM
same,TGI,[22],21.7 µM
same,TGI,[23],> 100 µM
same,TGI,[24],> 100 µM
same,TGI,[25],74.3 µM
same,TGI,[26],> 100 µM
same,TGI,[27],> 100 µM
same,TGI,[28],45.1 µM
same,TGI,[29],> 83.6 µM
same,TGI,[30],> 100 µM
same,TGI,[32],> 92.1 µM
same,TGI,[33],56.7 µM
same,TGI,[34],> 100 µM
same,TGI,[35],85.3 µM
same,TGI,[36],> 100 µM
same,TGI,[37],> 100 µM
same,TGI,[38],34.4 µM
same,TGI,[39],30.9 µM
same,TGI,[40],91.6 µM
same,TGI,[41],49.6 µM
same,TGI,[42],> 86.4 µM
same,TGI,[43],> 100 µM
same,TGI,[44],78 µM
same,TGI,[45],74.6 µM
same,TGI,[46],68.4 µM
same,TGI,[47],> 100 µM
same,TGI,[48],> 100 µM
same,TGI,[49],> 100 µM
same,TGI,[50],> 100 µM
same,TGI,[51],30.8 µM
same,TGI,[52],74.6 µM
same,TGI,[53],> 87.1 µM
same,TGI,[54],38.7 µM
same,TGI,[55],> 100 µM
same,TGI,[56],> 100 µM
same,TGI,[57],> 100 µM
same,TGI,[58],80.9 µM
same,TGI,[59],> 95.9 µM
